The values that follow come from US6642365B1, “Anti-(retro)viral conjugates of saccharides and acetamidino or guanidino compounds” (Yeda Research and Development Co. Ltd., priority 2001, dated 2003).

In test [1] the test system is rG15, rG15-rC15 duplex and truncated TAR RNA sequences. Kind of test: Gel-shift binding to short RNA oligonucleotides (specificity). Particulars: micromolar concentration range; data not shown.
Test [2] concerns the target T1, CXCR4 (Homo sapiens, UniProt P61073). To be noted: SDF-1α 20 ng/ml.
In test [3] the test system is HIV-1 NL4-3. Nature of the test: Virus-binding assay, p24 antigen bound to MT-4 cells. Particulars: 1 hour at 37° C.; dose dependent. Format: cell-based. The method, then: MT4 cells (5×10^5) were incubated with supernatant containing 1×10^5 pg of p24 antigen of wild type HIV-1 in the presence of different concentrations of the test compound. One hour after infection, cells were washed 3 times with PBS and p24 antigen bound to the cells was determined by a commercial ELISA test (Coulter, Spain).

In test [4] the target is T1, CXCR4. Kind of test: Inhibition of anti-CXCR4 mAb (12G5) binding, flow cytometry, SUP-T1 cells. Also noted: endogenous in cells. Particulars: for affinity for CXCR4: inhibition of 12G5 binding to SUP-T1 cells or PMBC. The method, then:
(§1) Measurement of chemokine receptors CXCR4, CCR5 and the CD4 receptor on phytohemagglutinin (PHA)-activated PBMC was performed by flow cytometry analysis. Briefly, 0.5×10^6 cells were washed in ice-cold phosphate-buffered saline (PBS) and incubated for 30 minutes at 4÷C. with fluorescent labelled mAb 12G5 and 2D7 and Leu3a (Becton Dickinson, San Jose, Calif.) or with isotype control mAbs in the presence or absence of the test compound. Then, the cells were washed with ice-cold PBS and were fixed in PBS containing 1% formaldehyde. For each sample, 10,000 events were analysed in a FACScalibur™ system (Becton Dickinson). Data were acquired and analysed with CellQuest™ software (Becton Dickinson).
(In general: Flow cytometry measures light scatter and fluorescence of single cells or particles in a stream.)

Test [5] deals with equine infectious anemia virus (EIAV). Nature of the test: Antiviral activity in EIAV-infected ED fibroblasts. It is filed as cell-based. To be noted: for EIAV replication in ED cells (FIG. 8): R3G at 12.5 and 25 μM, R4K at 50 and 100 μM, 10 pfu per cell. The method, then: Both equine dermal fibroblasts (ED) and Equine Infectious Anemia Virus (EIAV), Wyoming isolate (Malmquist et al., 1973) were gifts from Profs. A. Yaniv and A. Gazit, from the Sackler Medical School of the Tel-Aviv University, Israel. ED cells were plated on plastic 6-well tissue culture plates (Nunclone) at density of […] per well in 2 ml of DMEM/10% FCS (fetal calf serum). The medium was removed after 12-20 hours and the cells were inoculated for 2 hours with 0.5 ml DMEM/10% FCS containing 5×10^6 pfu (plaque forming units) of EIAV and 10 μg/ml of polybrene (hexadimetrine bromide, Sigma) (Carpenter and Chesebro, 1989). Following the incubation, another 2.5 ml of DMEM/10% FCS was added to each well. […] Every […], 1.2 ml samples of the medium were collected and replaced with same amount of medium, containing radioactive uridine and the tested. The samples were clarified from cell debris by spinning at 12000 rpm for 5 minutes on the Eppendorf centrifuge. Viral particles from the clarified supernatants were collected by ultracentrifugation at 75000 rpm, 4° C. on the Beckman TL 100 centrifuge using TLA 100.2 rotor (Cheevers et al., 1977). The supernatants were carefully discarded and the pellet was resuspended in 200 μl of 1% SDS/5% Tritone X-100, mixed with 1 ml Ultima Gold scintillation liquid (Packard) and counted on LS 1701 Bruker scintillation counter. Typical duration of the experiment was 15 days; EIAV growth curves in the presence of various concentrations of the conjugates in the medium were obtained. Development of the cytopathic effect (cpe) in the infected ED cells was monitored by light microscopy.
Equine infectious anemia virus (EIAV) of Wyoming strain is adapted to grow in equine dermal fibroblasts (ED), without damaging them with a titer of 1 μfu per cell (Malmquist virus). […] In the absence of inhibitors, EIAV proliferated in the ED cells reaching a plato 9-12 days after infection (FIG. 8). […] Development of cpe started 10-12 days after infection, reaching a maximum on days 15-17, followed by rapid cell death and exfoliation from the plastic bottom of the well.

The target of test [6] is T1, CXCR4. Kind of test: Inhibition of anti-CXCR4 mAb (12G5) binding, flow cytometry, PHA-activated PBMC. To be noted: for IC50: read-out: IC50-12G5 PMBC. More on the design: endogenous in cells. The method, then: as §1
Test [7] has as its system HIV-1 NL4-3 AMD3100-resistant. Format: cell-based. Particulars: for cross-resistance of NL4-3 AMD3100-resistant virus: relative to NL4-3.
Experimental: The cells were infected by incubation with different titers of the HIV-1 strains for 2 hrs at 37° C. in the presence or absence of the AAC of the invention. Then the cells were washed from the virus by centrifugation at 400 g and the supernatants were discarded. The cells were resuspended in culture medium, supplemented with different concentrations of the test compounds. The cells were allowed to proliferate for 5 days, the number of viable cells was quantified by a tetrazolium-based colorimetric method (CellTiter 96® AQueous One solution Cell Proliferation Assay, Promega).
Test [8] deals with TAR RNA. Kind of test: L-arginine-Amberlite affinity column elution of TAR RNA. It is filed as binding, HIV-1. To be noted: concentration that elutes 50% of TAR RNA from L-arginine-Amberlite affinity column.

Entries after “also recorded” stand apart in the source; their conditions may differ.

T1 sequence (P61073 whole entry): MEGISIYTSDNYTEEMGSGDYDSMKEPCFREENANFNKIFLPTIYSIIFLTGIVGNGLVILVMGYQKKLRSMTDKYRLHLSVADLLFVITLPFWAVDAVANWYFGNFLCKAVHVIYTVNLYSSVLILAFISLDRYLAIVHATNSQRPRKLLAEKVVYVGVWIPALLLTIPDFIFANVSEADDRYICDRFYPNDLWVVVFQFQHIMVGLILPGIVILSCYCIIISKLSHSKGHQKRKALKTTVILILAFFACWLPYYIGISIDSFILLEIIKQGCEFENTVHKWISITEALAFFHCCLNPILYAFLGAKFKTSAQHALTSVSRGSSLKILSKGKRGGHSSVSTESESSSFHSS

Regarding “Triargininamido-gentamicin conjugate [R3G]”, the “binding to short RNA oligonucleotides” value in test [1] was “did not display any binding”. Further, the “SDF-1α-dependent Ca2+ signal” value in test [2] was “inhibited; also recorded: blocked”. In addition, the “binding of HIV-1 NL4-3 to MT-4 cells” value in test [3] is “inhibit the binding”. Also, in test [4], the IC50 (as a rule, the midpoint of a concentration-inhibition curve) stood at 7.7 µM and the “affinity for CXCR4” value is on record as “high affinity”. In addition, in test [5] (25 μM, day 13-15), the “phenotype of EIAV-infected ED cells” value is reported as “preserved normal fibroblast phenotype”. Also, the “inhibition of cpe development” value in test [5] (25 and 50 μM, after 13-15 days) is “noticeable inhibition of the cpe development”. Further, the “EIAV replication in ED cells (FIG. 8)” value in test [5] is reported as “inhibited the viral growth”. For the same compound, the “viral titer compared to control” value in test [5] (added during cpe onset (day 12-13), read at day 15) is reported as “decreased at least twice”. In addition, the “binding of 12G5 mAb to PHA-activated PBMC” value in test [6] (5 μM) is “suppressed”. Further, the IC50 in test [6] came to 2.7 µM. In addition, the EC50 – broadly, the concentration at which the effect is half-maximal – in test [7] (MTT assay, read-out: EC50 HIV-1 AMD 3100res) is above 133 µM. For the same compound, in test [7], the “cross-resistance of NL4-3 AMD3100-resistant virus” value was above 9 fold. Moreover, the CE50 in test [8] is 1.4 mM.

With `N=C(N)NCCCC(N)C(=O)NCC1OC(OC2C(NC(=O)C(N)CCCNC(=N)N)CC(NC(=O)C(N)CCCNC(=N)N)C(OC3OC(CO)C(O)C(NC(=O)C(N)CCCNC(=N)N)C3O)C2O)C(O)C(O)C1O` (centres unmarked) [R4K, Tetraargininamido-kanamycin A conjugate], the “binding to short RNA oligonucleotides” value in test [1] is “did not display any binding”. Besides, in test [2], the “SDF-1α-dependent Ca2+ signal” value is “inhibited; also recorded: blocked”. For the same compound, the “binding of HIV-1 NL4-3 to MT-4 cells” value in test [3] is recorded as “inhibit the binding”. In test [4], the IC50 stood at 3.7 µM and the “affinity for CXCR4” value is “high affinity”. In test [5], the “EIAV replication in ED cells (FIG. 8)” value was “inhibited the viral growth”. In addition, the IC50 in test [6] stood at 2.2 µM. The “cross-resistance of NL4-3 AMD3100-resistant virus” value in test [7] is given as above 4 fold. In test [8], this compound yielded a CE50 of 2.5 mM.
